For 20 molecules, IC50 and AUC(0-t) results are on record in patent publication US11045455B2, “Azetidine derivative, preparation method therefor, and use thereof” (SICHUAN KELUN-BIOTECH BIOPHARMACEUTICAL CO., LTD., priority 2016, dated 2021).

The target in one data set is TYK2 (Homo sapiens (Human), UniProt P29597). As to the kind of experiment: TYK2 enzymatic inhibition assay (LanthaScreen TR-FRET). It is filed as biochemical. How it is done: (§1) Experimental Example 1: JAK1, JAK2, JAK3 and TYK2 Enzymatic Inhibition Assay
As for the TYK2 enzyme, Tb-anti-pSTAT1 was added, and incubation at room temperature was performed.

A further data set addresses JAK3 (Homo sapiens (Human), UniProt P52333). As to the kind of experiment: JAK3 enzymatic inhibition assay (ADP-Glo luminescence). It is filed as biochemical.
Description: as §1

The next data set deals with hERG potassium channel (Homo sapiens (Human), UniProt Q12809). Kind of data set: Predictor hERG Fluorescence Polarization Assay. The settings on record: tested at 3, 10 and 30 μM. It is filed as binding. How it is done: Experimental Example 2: Safety Test
The effect of test compounds on hERG potassium channel were determined using Predictor™ hERG Fluorescence Polarization Assay at concentrations of 3, 10, and 30 μM.

The target of another data set is JAK2 (Homo sapiens (Human), UniProt O60674). Kind of data set: JAK2 enzymatic inhibition assay (ADP-Glo luminescence). It is filed as biochemical.
A further data set has as its target CYP2D6 (Homo sapiens (Human), UniProt P10635). As to the kind of experiment: CYP450 enzyme test, Vivid CYP2D6 Cyan screening kit. It is filed as in vitro ADME. An excerpt: (§2) CYP450 is the most important enzymatic system in drug metabolism. The enzymes involved in the metabolism interact with a drug, and mainly include CYP1A2, CYP2D6 and CYP3A4. In the CYP450 enzyme test, P450-Glo™ CYP1A2 screening system was employed to determine the inhibitory activity of compounds on CYP1A2 and CYP3A4. The Vivid® CYP2D6 Cyan screening kit was employed to determine the inhibitory activity of test compounds on CYP2D6.

The target of another data set is CYP3A4 (Homo sapiens (Human), UniProt P08684). As to the kind of experiment: CYP450 enzyme test, P450-Glo screening system, CYP3A4. It is filed as in vitro ADME.
Description: as §2

A further data set deals with CYP1A2 (Homo sapiens (Human), UniProt P05177). Kind of data set: CYP450 enzyme test, P450-Glo screening system, CYP1A2. The following applies: read-out: IC50 (μM) CYP1A2. It is filed as in vitro ADME.
Description: as §2

In a further data set the target is JAK1 (Homo sapiens (Human), UniProt P23458). Kind of data set: JAK1 enzymatic inhibition assay (ADP-Glo luminescence). It is filed as biochemical.
A short description of data set [1]: Pharmacokinetic study in rats, intravenous (IV) administration. It is filed as in vivo. The settings on record: male, SD, rat, plasma, IV administration at 1 mg/kg, 0-24 h. The protocol:
Experimental Example 3: Pharmacokinetic Studies
To study the pharmacokinetic characteristics of test compounds, the test compounds were administrated by intravenous (IV) and gavage (PO) routes to male SD rats. The dosage for IV administration was 1 mg/kg, and that for PO administration was 0.5-5 mg/kg. The vehicle is 10% DMSO: 10% solutol: 80% physiological saline, or 5% DMSO: 5% solutol: 90% physiological saline, or 10% DMSO: 60% PEG: 30% physiological saline. Blood was collected at various time points after administration. Plasma samples were analyzed by LC-MS/MS after protein precipitation process with acetonitrile.

Counter-ions that a name gives are not always drawn. Like-named read-outs stand apart in the source and are kept apart here.

Sequence of JAK3 (P52333 whole entry): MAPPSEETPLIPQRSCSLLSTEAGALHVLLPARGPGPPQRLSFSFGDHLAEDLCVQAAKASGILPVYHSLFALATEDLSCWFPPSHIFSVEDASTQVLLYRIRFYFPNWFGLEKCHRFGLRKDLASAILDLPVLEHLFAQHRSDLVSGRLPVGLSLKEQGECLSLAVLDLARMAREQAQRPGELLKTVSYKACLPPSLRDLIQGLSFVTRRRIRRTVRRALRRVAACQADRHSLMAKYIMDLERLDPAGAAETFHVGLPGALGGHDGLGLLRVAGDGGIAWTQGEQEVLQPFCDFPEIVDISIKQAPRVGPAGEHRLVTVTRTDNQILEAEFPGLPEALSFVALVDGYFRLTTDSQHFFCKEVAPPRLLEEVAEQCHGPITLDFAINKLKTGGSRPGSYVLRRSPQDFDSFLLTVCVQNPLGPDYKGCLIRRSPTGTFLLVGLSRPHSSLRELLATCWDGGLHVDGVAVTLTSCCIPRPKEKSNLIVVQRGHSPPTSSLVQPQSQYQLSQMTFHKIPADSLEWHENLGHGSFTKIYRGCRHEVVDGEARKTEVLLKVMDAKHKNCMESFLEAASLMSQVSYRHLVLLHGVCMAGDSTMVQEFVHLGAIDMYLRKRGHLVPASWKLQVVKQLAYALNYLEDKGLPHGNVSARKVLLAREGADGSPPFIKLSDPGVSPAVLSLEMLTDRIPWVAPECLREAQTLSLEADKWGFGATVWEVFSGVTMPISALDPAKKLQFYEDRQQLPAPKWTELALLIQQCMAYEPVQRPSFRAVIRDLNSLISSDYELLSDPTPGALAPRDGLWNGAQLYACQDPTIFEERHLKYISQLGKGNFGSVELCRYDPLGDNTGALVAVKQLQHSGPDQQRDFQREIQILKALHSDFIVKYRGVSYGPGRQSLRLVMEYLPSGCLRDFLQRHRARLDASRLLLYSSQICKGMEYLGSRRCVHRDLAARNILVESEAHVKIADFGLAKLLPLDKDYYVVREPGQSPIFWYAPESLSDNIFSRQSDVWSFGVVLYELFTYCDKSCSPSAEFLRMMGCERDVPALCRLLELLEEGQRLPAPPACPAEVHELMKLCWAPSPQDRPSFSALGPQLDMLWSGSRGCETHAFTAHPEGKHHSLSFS
Sequence of JAK1 (P23458 whole entry): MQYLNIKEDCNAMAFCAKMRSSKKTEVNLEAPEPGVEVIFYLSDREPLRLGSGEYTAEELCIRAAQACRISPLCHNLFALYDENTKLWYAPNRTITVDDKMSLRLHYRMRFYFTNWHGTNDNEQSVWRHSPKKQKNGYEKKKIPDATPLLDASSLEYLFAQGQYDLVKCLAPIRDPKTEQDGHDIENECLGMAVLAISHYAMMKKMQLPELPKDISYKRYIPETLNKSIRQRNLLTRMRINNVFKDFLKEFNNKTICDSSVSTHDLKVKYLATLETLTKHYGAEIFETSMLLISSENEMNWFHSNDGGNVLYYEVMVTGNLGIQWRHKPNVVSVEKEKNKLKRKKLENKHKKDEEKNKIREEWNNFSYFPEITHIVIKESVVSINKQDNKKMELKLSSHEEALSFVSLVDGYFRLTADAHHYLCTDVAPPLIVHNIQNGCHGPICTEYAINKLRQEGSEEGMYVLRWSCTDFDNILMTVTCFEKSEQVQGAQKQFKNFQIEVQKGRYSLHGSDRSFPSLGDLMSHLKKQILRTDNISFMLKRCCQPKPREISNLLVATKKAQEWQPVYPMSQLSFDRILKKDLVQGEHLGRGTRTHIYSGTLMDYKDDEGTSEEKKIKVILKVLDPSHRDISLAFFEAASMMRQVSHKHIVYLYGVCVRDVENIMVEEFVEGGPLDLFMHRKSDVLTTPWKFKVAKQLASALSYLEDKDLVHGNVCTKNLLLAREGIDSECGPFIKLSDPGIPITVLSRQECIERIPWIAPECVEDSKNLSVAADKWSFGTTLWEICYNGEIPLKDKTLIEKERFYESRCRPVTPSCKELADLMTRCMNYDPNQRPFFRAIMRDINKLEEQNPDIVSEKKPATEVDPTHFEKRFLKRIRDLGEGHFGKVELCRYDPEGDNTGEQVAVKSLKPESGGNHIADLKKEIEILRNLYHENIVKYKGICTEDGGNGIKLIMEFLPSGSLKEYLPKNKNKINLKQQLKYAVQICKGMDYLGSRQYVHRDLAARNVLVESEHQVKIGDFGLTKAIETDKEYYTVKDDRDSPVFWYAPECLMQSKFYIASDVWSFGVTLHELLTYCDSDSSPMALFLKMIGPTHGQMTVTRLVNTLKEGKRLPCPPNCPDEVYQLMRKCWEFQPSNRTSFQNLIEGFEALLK
Sequence of TYK2 (P29597 whole entry): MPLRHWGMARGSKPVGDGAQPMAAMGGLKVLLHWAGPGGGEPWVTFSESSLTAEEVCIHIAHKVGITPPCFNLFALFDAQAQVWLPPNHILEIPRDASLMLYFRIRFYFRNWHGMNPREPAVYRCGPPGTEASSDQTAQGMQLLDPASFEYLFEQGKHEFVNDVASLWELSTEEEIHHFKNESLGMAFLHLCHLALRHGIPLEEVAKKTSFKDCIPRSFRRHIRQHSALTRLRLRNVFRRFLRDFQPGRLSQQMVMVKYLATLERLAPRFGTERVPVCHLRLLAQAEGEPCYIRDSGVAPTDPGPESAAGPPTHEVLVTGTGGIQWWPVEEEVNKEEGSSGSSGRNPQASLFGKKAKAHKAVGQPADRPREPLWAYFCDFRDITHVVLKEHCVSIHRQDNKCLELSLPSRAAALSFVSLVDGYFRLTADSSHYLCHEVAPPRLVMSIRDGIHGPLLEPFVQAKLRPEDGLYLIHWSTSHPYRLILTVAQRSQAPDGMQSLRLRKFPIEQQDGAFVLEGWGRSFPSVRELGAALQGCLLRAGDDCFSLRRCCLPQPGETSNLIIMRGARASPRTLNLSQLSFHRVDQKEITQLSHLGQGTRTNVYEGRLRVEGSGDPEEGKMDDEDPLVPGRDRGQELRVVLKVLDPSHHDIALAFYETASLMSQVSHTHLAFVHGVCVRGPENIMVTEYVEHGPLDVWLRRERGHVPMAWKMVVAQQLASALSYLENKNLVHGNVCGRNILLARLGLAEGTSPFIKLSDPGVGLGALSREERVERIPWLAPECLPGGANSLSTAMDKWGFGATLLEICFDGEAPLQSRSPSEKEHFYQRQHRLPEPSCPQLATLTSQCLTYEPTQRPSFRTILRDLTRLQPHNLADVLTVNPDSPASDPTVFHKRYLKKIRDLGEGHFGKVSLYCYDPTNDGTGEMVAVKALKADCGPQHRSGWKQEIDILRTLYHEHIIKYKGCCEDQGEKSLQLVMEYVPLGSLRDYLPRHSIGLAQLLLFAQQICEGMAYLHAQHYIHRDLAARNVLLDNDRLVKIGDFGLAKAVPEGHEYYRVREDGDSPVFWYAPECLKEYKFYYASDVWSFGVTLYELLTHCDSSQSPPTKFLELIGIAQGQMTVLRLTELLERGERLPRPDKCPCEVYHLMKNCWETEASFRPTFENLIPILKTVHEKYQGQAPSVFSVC
Sequence of JAK2 (O60674 whole entry): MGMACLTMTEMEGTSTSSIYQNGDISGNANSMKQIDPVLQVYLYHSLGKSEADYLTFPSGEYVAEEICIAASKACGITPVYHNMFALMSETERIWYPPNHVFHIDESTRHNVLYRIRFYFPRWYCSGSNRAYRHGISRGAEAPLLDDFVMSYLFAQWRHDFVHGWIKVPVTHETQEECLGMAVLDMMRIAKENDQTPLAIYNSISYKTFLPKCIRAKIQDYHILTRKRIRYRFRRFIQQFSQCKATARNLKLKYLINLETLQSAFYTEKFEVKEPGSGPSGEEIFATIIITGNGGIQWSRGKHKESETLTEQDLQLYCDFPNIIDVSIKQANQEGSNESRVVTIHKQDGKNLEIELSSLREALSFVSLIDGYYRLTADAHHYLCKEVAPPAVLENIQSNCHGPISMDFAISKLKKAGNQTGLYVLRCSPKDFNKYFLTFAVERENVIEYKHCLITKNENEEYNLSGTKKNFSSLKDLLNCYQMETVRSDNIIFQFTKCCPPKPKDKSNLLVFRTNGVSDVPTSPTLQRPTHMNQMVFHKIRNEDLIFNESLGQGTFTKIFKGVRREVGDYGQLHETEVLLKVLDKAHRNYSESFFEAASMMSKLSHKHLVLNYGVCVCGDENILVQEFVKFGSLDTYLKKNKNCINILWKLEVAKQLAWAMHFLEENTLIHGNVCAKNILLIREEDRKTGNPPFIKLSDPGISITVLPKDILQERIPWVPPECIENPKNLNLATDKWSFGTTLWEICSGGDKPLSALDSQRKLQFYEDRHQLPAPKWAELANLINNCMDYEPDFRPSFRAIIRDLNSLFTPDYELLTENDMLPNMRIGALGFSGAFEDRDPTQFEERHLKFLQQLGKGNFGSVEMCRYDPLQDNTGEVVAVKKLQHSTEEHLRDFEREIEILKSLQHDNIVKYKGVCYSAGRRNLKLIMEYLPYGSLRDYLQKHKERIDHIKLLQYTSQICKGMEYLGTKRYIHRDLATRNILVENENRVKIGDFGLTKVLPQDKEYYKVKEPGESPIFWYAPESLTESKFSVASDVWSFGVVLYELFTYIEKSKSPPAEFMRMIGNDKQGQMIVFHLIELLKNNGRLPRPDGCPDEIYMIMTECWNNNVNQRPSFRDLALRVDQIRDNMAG
Sequence of CYP1A2 (P05177 whole entry): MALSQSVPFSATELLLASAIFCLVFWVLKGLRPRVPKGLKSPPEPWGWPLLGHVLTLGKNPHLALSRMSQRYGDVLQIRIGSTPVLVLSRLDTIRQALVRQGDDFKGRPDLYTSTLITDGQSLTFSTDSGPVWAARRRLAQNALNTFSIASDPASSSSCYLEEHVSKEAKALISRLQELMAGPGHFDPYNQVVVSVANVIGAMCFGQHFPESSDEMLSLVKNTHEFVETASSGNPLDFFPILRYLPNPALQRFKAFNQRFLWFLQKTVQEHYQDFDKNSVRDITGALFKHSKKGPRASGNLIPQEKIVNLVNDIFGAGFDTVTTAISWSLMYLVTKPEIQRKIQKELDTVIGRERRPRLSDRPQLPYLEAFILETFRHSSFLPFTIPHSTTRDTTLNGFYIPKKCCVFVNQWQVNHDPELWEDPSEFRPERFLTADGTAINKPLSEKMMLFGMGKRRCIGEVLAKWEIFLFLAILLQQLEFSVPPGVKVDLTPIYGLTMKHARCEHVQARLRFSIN
Description for JAK1: (§3) Test Materials • JAK1, JAK2, JAK3 and TYK2 enzymes were purchased from Life Technologies; and substrate GFP-STAT1 was purchased from Life Technologies.
(§4) Test compounds, enzymes, the substrate and ATP were diluted to the desired concentrations with the assay buffer (40 mM Tris-HCl, pH 7.4, 20 mM MgCl2, 0.1% BSA). The former three were added into a multiple well plate, and incubated at room temperature after being mixed homogeneously. ATP was added to initiate the kinase reaction, and incubation at room temperature was performed. ADP-Glo was added, and incubation at room temperature was performed. The kinase detector reagent was then added, and incubation at room temperature was performed. The luminescence intensity of each test group was detected, and the half maximal inhibitory concentration (IC50) value was calculated.
Description for JAK2: as §3, §4

`CCS(=O)(=O)N1CC([C@H](C)C#N)(n2cc(-c3ncnc4[nH]ccc34)cn2)C1` [Compound 12-2, (S)-2-(3-(4-(7H-pyrrolo[2,3-d]pyrimidin-4-yl)-1H-pyrazol-1-yl)-1-(ethylsulfonyl)azetidin-3-yl)propanenitrile]: the IC50 against TYK2 was around 30 nM; against JAK3, 10 to 30 nM; on hERG potassium channel, above 30000 nM; against JAK2 it was 1.81 nM.

As for `CCS(=O)(=O)N1CC(CC#N)(n2cc(-c3ncnc4[nH]ccc34)c(C)n2)C1` [Compound 49, 2-(1-(ethylsulfonyl)-3-(3-methyl-4-(7H-pyrrolo[2,3-d]pyrimidin-4-yl)-1H-pyrazol-1-yl)azetidin-3-yl)acetonitrile], the IC50 at CYP2D6 is above 10 µM; on CYP3A4, above 10 µM; at CYP1A2, above 10 µM; on hERG potassium channel, above 30000 nM; against JAK2 it was 1.21 nM.

`CCCS(=O)(=O)N1CC(CC#N)(n2cc(-c3c(C#N)cnc4[nH]ccc34)cn2)C1` [Compound 40, 4-(1-(3-(cyanomethyl)-1-(propylsulfonyl)azetidin-3-yl)-1H-pyrazol-4-yl)-1H-pyrrolo[2,3-b]pyridine-5-carbonitrile]: the IC50 came to 0.97 nM at JAK1 and 2.24 nM on JAK2.

`CN(C)S(=O)(=O)N1CC(CC#N)(n2cc(-c3c(C#N)cnc4[nH]ccc34)cn2)C1` [Compound 34, 3-(4-(5-cyano-1H-pyrrolo[2,3-b]pyridin-4-yl)-1H-pyrazol-1-yl)-3-(cyanomethyl)-N,N-dimethylazetidine-1-sulfonamide]: the figures for the half-maximal inhibitory concentration (IC50) at JAK1 and at JAK2 were 0.8 nM and 1.66 nM, respectively.

Regarding `CCS(=O)(=O)N1CC(C(C)C#N)(n2cc(-c3c(C#N)cnc4[nH]ccc34)cn2)C1` (stereo not shown) [Compound 45, 4-(1-(3-(1-cyanoethyl)-1-(ethylsulfonyl)azetidin-3-yl)-1H-pyrazol-4-yl)-1H-pyrrolo[2,3-b]pyridine-5-carbonitrile], the 50% inhibitory concentration (IC50) at JAK1 was found to be 1.66 nM; against JAK2, 3.22 nM.

`N#CCC1(n2cc(-c3ccnc4[nH]ccc34)cn2)CN(S(=O)(=O)N2CCCC2)C1` [Compound 35, 2-(3-(4-(1H-pyrrolo[2,3-b]pyridin-4-yl)-1H-pyrazol-1-yl)-1-(pyrrolidin-1-ylsulfonyl)azetidin-3-yl)acetonitrile]: the IC50 against TYK2 was above 30 nM; against JAK3, above 30 nM; against JAK1 it was 1.46 nM; on hERG potassium channel, above 30000 nM; against JAK2 it was 1.4 nM.

`CCCS(=O)(=O)N1CC(CC#N)(n2cc(-c3ccnc4[nH]ccc34)cn2)C1` [Compound 23, 2-(3-(4-(1H-pyrrolo[2,3-b]pyridin-4-yl)-1H-pyrazol-1-yl)-1-(propylsulfonyl)azetidin-3-yl)acetonitrile]: the IC50 at JAK1 is 2.41 nM; on hERG potassium channel, above 30000 nM; on JAK2 it was 0.89 nM.

For `CCS(=O)(=O)N1CC(CC#N)(n2ccc(-c3c(C#N)cnc4[nH]ccc34)c2)C1` [Compound 17, 4-(1-(3-(cyanomethyl)-1-(ethylsulfonyl)azetidin-3-yl)-1H-pyrrol-3-yl)-1H-pyrrolo[2,3-b]pyridine-5-carbonitrile], the IC50 at JAK1 was 1.13 nM; at hERG potassium channel, above 30000 nM; on JAK2, 0.93 nM.

Consider `N#CCC1(n2cc(-c3ccnc4[nH]ccc34)cn2)CN(S(=O)(=O)C2CC2)C1` [Compound 26, 2-(3-(4-(1H-pyrrolo[2,3-b]pyridin-4-yl)-1H-pyrazol-1-yl)-1-(cyclopropylsulfonyl)azetidin-3-yl)acetonitrile], for which the IC50 against JAK1 is 0.46 nM; at hERG potassium channel, above 30000 nM; against JAK2, 0.37 nM.

In the case of `CCS(=O)(=O)N1CC(CC#N)(n2cc(-c3c(F)cnc4[nH]ccc34)cn2)C1` [Compound 52-HCl, 2-(1-(ethylsulfonyl)-3-(4-(5-fluoro-1H-pyrrolo[2,3-b]pyridin-4-yl)-1H-pyrazol-1-yl)azetidin-3-yl)acetonitrile Hydrochloride Salt], the concentration for half-maximal inhibition (IC50) at JAK2 (Hydrochloride Salt) was determined as 0.35 nM.

`CN(C)S(=O)(=O)N1CC(CC#N)(n2cc(-c3ccnc4[nH]ccc34)cn2)C1` [Compound 14, 3-(4-(1H-pyrrolo[2,3-b]pyridin-4-yl)-1H-pyrazol-1-yl)-3-(cyanomethyl)-N,N-dimethylazetidine-1-sulfonamide]: the values for the IC50 on JAK1, on hERG potassium channel and against JAK2 were 1.3 nM, above 30000 nM and 0.5 nM, respectively.

Regarding `CC1(S(=O)(=O)N2CC(CC#N)(n3cc(-c4c(C#N)cnc5[nH]ccc45)cn3)C2)CC1` [Compound 1, 4-(1-(3-(cyanomethyl)-1-((1-methylcyclopropyl)sulfonyl)azetidin-3-yl)-1H-pyrazol-4-yl)-1H-pyrrolo[2,3-b]pyridine-5-carbonitrile], the results for the concentration for half-maximal inhibition (IC50) against JAK1, at hERG potassium channel and against JAK2 were 0.78 nM, above 30000 nM and 1.98 nM, respectively.

On to `CS(=O)(=O)N1CC(CC#N)(n2cc(-c3c(C#N)cnc4[nH]ccc34)cn2)C1` [Compound 2, 4-(1-(3-(cyanomethyl)-1-(methylsulfonyl)azetidin-3-yl)-1H-pyrazol-4-yl)-1H-pyrrolo[2,3-b]pyridine-5-carbonitrile], for which the IC50 is 0.17 nM against JAK1, above 30000 nM on hERG potassium channel and 0.42 nM against JAK2.

Consider `N#CCC1(n2cc(-c3c(C#N)cnc4[nH]ccc34)cn2)CN(S(=O)(=O)CCC(F)(F)F)C1` [Compound 44, 4-(1-(3-(cyanomethyl)-1-((3,3,3-trifluoropropyl)sulfonyl)azetidin-3-yl)-1H-pyrazol-4-yl)-1H-pyrrolo[2,3-b]pyridine-5-carbonitrile], for which the results for the IC50 against JAK1 and at JAK2 were 1.95 nM and 3.93 nM, respectively.

`CC1(S(=O)(=O)N2CC(CC#N)(n3cc(-c4ccnc5[nH]ccc45)cn3)C2)CC1` [Compound 31, 2-(3-(4-(1H-pyrrolo[2,3-b]pyridin-4-yl)-1H-pyrazol-1-yl)-1-((1-methylcyclopropyl)sulfonyl)azetidin-3-yl)acetonitrile]: the exposure AUC(0-t) in data set [1] worked out at 540 ng·h/mL. For the same molecule, the 50% inhibitory concentration (IC50) on JAK3 was 23.6 nM; against JAK1 it was 0.72 nM; at hERG potassium channel, above 30000 nM; at JAK2 it was 1.23 nM.

Turning to `CCS(=O)(=O)N1CC(CC#N)(n2cc(C)c(-c3ncnc4[nH]ccc34)c2)C1` [Compound 56, 2-(1-(ethylsulfonyl)-3-(3-methyl-4-(7H-pyrrolo[2,3-d]pyrimidin-4-yl)-1H-pyrrol-1-yl)azetidin-3-yl)acetonitrile], the figures for the IC50 against JAK1 and at JAK2 were 3.52 nM and 1.76 nM, respectively.

For `CCS(=O)(=O)N1CC(CC#N)(n2cc(-c3c(Cl)cnc4[nH]ccc34)cn2)C1` [Compound 50-HCl, 2-(3-(4-(5-chloro-1H-pyrrolo[2,3-b]pyridin-4-yl)-1H-pyrazol-1-yl)-1-(ethylsulfonyl)azetidin-3-yl)acetonitrile Hydrochloride Salt], the IC50 at JAK2 (Hydrochloride Salt) was determined as 0.62 nM.

Consider `CCS(=O)(=O)N1CC(CC#N)(n2cc(-c3ccnc4[nH]ccc34)c(C)n2)C1` [Compound 13, 2-(1-(ethylsulfonyl)-3-(3-methyl-4-(1H-pyrrolo[2,3-b]pyridin-4-yl)-1H-pyrazol-1-yl)azetidin-3-yl)acetonitrile], for which the IC50 against TYK2 is around 30 nM; on JAK3 it was above 30 nM; on JAK1 it was 2.89 nM; at hERG potassium channel, above 30000 nM; at JAK2, 1.44 nM.

Regarding `CCS(=O)(=O)N1CC([C@@H](C)C#N)(n2cc(-c3c(C#N)cnc4[nH]ccc34)cn2)C1` [Compound 45-1, (R)-4-(1-(3-(1-cyanoethyl)-1-(ethylsulfonyl)azetidin-3-yl)-1H-pyrazol-4-yl)-1H-pyrrolo[2,3-b]pyridine-5-carbonitrile], the IC50 is around 30 nM on TYK2; 10 to 30 nM on JAK3; 1.65 nM against JAK1; above 30000 nM on hERG potassium channel; 1.17 nM against JAK2.

In the case of `CCS(=O)(=O)N1CC([C@H](C)C#N)(n2cc(-c3c(C#N)cnc4[nH]ccc34)cn2)C1` [Compound 45-2, (S)-4-(1-(3-(1-cyanoethyl)-1-(ethylsulfonyl)azetidin-3-yl)-1H-pyrazol-4-yl)-1H-pyrrolo[2,3-b]pyridine-5-carbonitrile], the IC50 against TYK2 was around 30 nM; on JAK3, 10 to 30 nM; against JAK1 it was 1.85 nM; on hERG potassium channel, above 30000 nM; at JAK2, 1.11 nM.
